The record followed here is paper PMC3101243, “Probenecid Inhibits the Human Bitter Taste Receptor TAS2R16 and Suppresses Bitter Perception of Salicin” (PLoS ONE, 2011).

Structures are written as SMILES.

Holding throughout (format): cell-based
The target in experiment [1] is T1, hTAS2R43 (Homo sapiens, UniProt P59537).
T1 construct: gene TAS2R43; W35/H212 variant; first 45 amino acids of the rat somatostatin type 3 receptor fused for cell-surface targeting
T1 sequence (P59537 1-309): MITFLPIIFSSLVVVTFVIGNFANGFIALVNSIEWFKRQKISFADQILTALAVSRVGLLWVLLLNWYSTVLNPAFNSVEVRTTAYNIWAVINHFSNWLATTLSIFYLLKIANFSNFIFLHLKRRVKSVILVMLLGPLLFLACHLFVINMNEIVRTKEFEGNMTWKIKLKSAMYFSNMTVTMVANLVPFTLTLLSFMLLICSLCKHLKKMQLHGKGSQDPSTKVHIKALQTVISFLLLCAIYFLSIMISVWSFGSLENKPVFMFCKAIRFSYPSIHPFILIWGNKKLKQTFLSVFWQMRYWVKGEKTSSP
In words: calcium flux in transfected HEK-293T cells (with Gα[…]gust44), […] aloin. For orientation: A change in cytosolic calcium serves as a functional read-out for many receptors and channels.

Experiment [2] has as its target T2, hTAS2R38 (Homo sapiens, UniProt P59533, A49P/I296V).
T2 construct: gene TAS2R38; PAV variant; first 45 amino acids of the rat somatostatin type 3 receptor fused for cell-surface targeting
In words: calcium flux in transfected HEK-293T cells (with Gα[…]gust44), inhibition of […] PTC response.

Experiment [3] concerns the target T3, hTAS2R16 (Homo sapiens, UniProt Q9NYV7, R222H).
T3 construct: gene TAS2R16
T3 sequence (Q9NYV7 1-291 R222H): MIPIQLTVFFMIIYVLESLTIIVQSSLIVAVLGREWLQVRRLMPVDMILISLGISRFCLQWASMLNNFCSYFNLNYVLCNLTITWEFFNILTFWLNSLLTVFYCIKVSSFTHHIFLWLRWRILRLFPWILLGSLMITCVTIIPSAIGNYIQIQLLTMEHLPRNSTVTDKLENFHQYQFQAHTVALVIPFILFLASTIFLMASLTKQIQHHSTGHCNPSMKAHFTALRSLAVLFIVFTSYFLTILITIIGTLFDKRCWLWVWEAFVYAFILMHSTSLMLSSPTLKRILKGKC
Nature of the experiment: calcium flux in transfected HEK-293T cells (with Gα[…]gust44), inhibition of […] salicin response; dose-response and mutant analysis.

The target in experiment [4] is T3, hTAS2R16. In words: calcium flux agonist dose-response in transfected HEK-293T cells (with Gα[…]gust44).

T2 sequence (P59533 whole entry A49P/I296V, the tested form may be a part): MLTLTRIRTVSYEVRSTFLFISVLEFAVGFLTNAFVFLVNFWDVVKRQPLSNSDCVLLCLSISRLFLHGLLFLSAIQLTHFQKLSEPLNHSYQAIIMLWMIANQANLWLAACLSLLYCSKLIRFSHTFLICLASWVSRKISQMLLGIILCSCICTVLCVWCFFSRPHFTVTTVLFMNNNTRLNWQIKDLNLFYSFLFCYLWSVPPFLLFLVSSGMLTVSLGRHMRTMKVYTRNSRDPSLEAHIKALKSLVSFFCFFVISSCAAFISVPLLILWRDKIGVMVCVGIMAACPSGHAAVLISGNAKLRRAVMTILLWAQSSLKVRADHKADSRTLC

Regarding `O=C1c2c(O)cccc2C([C@@H]2O[C@H](CO)[C@@H](O)[C@H](O)[C@H]2O)c2cc(CO)cc(O)c21` (stereo partly shown) [aloin], the “calcium flux in transfected HEK-293T cells (with Gα16gust44), 3 mM aloin” value in experiment [1] was “Aloin induced an increase in intracellular calcium in HEK-293T cells expressing hTAS2R43”.
For `CCCN(CCC)S(=O)(=O)c1ccc(C(=O)O)cc1` [probenecid, p-(dipropylsulfamoyl)benzoic acid], the IC50 (usually the midpoint of a concentration-inhibition curve) amounted to 211 µM in experiment [2] and 292 µM in experiment [3].
As to `OCc1ccccc1O[C@@H]1O[C@H](CO)[C@@H](O)[C@H](O)[C@H]1O` [salicin], in experiment [4], the half-maximal effective concentration (EC50) (usually the concentration at which the effect is half-maximal) is approximately 1200 µM.
